Laboratory results as given in US8815811B2, “Peptides and methods for their preparation and use” (Eli Lilly and Company, priority 2010, dated 2014).
Where no end group is shown, it is not given here. [ ]: non-standard residue; d: D form. 1Nal = N[C@@H](Cc1cccc2ccccc12)C(=O)O; Aib = CC(C)(N)C(=O)O

Columns and labels:
hGlucR = biological target: T1, hGlucR (Homo sapiens, UniProt P47871); experiment: Glucagon receptor (hGlucR) binding assay (SPA, I-125 glucagon); settings: hGlucR 293HEK membranes
T1 construct: expressed in transfected cells; host or cells: 293HEK, Hygromycin-selected, phD expression plasmid
Method: The hGlucR cDNA is subcloned into the expression plasmid phD (Trans-activated expression of fully gamma-carboxylated recombinant human protein C, an antithrombotic factor. Grinnell, B. W., et. al., Bio/Technology 5: 1189-1192 (1987)). This plasmid DNA is transfected into 293HEK cells and selected with 200 μg/mL Hygromycin.
Crude plasma membranes are prepared using cells from suspension culture. The cells are lysed on ice in hypotonic buffer containing 25 mM Tris HCl, pH 7.5, 1 mM MgCl2, DNAse1, 20 μ/mL, and Roche Complete™ Inhibitors without EDTA. The cell suspension is homogenized with a glass dounce homogenizer using a Teflon® pestle for 25 strokes. The homogenate is centrifuged at 4° C. at 1800×g for 15 minutes. The supernatant is collected and the pellet is resuspended in hypotonic buffer and rehomogenized. The mixture is centrifuged at 1800×g for 15 minutes. The second supernatant is combined with the first supernatant. […]
The binding buffer contains 25 mM 4-(2-hydroxyethyl)-1-piperazineethanesulfonic acid (HEPES), pH 7.4, 2.5 mM CaCl2, 1 mM MgCl2, 0.1% fatty acid free BSA, 0.003% Tween20, and Roche Complete™ Inhibitors without EDTA. […] Plates are read with a PerkinElmer Life and Analytical Sciences Trilux MicroBeta® scintillation counter after 12 hours of settling time at room temperature.
Results are calculated as a percent of specific I-125-glucagon binding in the presence of compound. […]

[1] = tested on: diet-induced obese (DIO) mice; experiment: Effects on food intake, body weight and body composition in DIO mice; type: in vivo; settings: for Fat mass loss (g fat weight change for 14 days) / Total food intake (g total for 14 days) / Overall weight loss (g weight change for 14 days): DIO mice
Method: Effects on Food Intake, Body Weight and Body Composition in Diet-Induced Obese (DIO) Mice
Three to four months old male diet-induced obese (DIO) mice are used. Animals are individually housed in a temperature-controlled (24° C.) facility with a 12 hour light/dark cycle (lights on 22:00), and have free access to food and water. After 2 weeks acclimation to the facility, mice are randomized to treatment groups (n=8-10/group) so that each group has similar mean body weight and fat mass. Before the experiment, mice are subcutaneously (sc) injected with vehicle solution and weighed for 7 days to acclimate them to the procedures.
Vehicle or peptide analog (dose range 10-100 nmol/Kg) dissolved in vehicle is administered by sc injection to ad libitum fed DIO mice 30-90 minutes prior to the onset of the dark cycle […] for 2 to 4 weeks. Body weight and the weight of food plus the hopper are measured at the same time. Food consumed in the last 24 hours is calculated by subtracting current weight of food plus the hopper from that of the previous day. Absolute changes in body weight are calculated by subtracting the body weight of the animal prior to the first injection. On days −1 and 14, total fat mass is measured by nuclear magnetic resonance (NMR) using an Echo Medical System (Houston, Tex.) instrument. Fat free mass is calculated by subtracting fat mass from total body weight.

DIO mice = experiment: Oral glucose tolerance test after 2-week treatment in DIO mice; type: in vivo; settings: for Glucose AUC, MEAN: OGTT
Method: Fifty-six hours after the last injection of compound in the DIO study above the animals were subjected to an oral glucose tolerance test. In short, mice were fasted for 16 hours prior to the start of the glucose tolerance test. At time 0, animals are given 2 g/kg dextrose by oral gavage. Blood is collected by tail bleeding taken 0, 15, 30, 60 and 120 minutes after glucose challenge. Glucose concentration is measured by glucometer.

[2] = tested on: diet-induced obese Long Evans rats; experiment: Effects on food intake, body weight, body composition and plasma lipids in DIO Long Evans rats; type: in vivo
Method: Four to five months old male diet-induced obese Long Evans rats are used. Animals are individually housed in a temperature-controlled (24° C.) facility with a 12 hour light/dark cycle (lights on 22:00), and have free access to food (diet TD95217) and water. Animals are acclimated to the facility for at least 2 weeks. On day 0, body composition is determined by QNMR and rats are randomized to respective groups (n=6/group) based on body weight, % fat, and % lean mass. Compound is administered by subcutaneous injection on days 1, 4, 8, 11, and 15. […] After CO2 euthanasia, blood samples are taken by cardiac stick for analysis of exposure determination.

Normal male Wistar rats = experiment: Intravenous glucose tolerance test in normal rats; type: in vivo; settings: IVGTT; for insulin AUC: 0 to 30 min
Method: Effects on Blood Glucose Excursion During an Intravenous Glucose Tolerance Test in Normal Rats
Normal male Wistar rats (225-250 g) are used in the study. Animals are randomized into groups based on fed body weight and blood glucose. Animals are injected with vehicle or peptide analog (dose 3-400 μg peptide content/kg) 16 hours prior to the start of the test. Food is removed at the time of injection. Prior to the assay the animals are put under anesthesia, Phenobarbital 65 mg/kg i.p., and two catheters are inserted, one in the jugular vein and the other in the carotid artery. At time 0, animals are given 0.5 g glucose/kg through the venous catheter. Blood is collected from the carotid artery at time 0 (pre glucose), 2, 4, 6, 10, 20 and 30 minutes after glucose challenge. Glucose concentration is measured by glucometer. Insulin is measured by Mesoscale®. Efficacy is measured as the increase in total area under the insulin curve (=integrated plasma insulin values from t+0 to 30 min) as well as the area under the glucose curve which is a measure of the glucose excursion following the intravenous glucose challenge.

T1 sequence (P47871 26-477): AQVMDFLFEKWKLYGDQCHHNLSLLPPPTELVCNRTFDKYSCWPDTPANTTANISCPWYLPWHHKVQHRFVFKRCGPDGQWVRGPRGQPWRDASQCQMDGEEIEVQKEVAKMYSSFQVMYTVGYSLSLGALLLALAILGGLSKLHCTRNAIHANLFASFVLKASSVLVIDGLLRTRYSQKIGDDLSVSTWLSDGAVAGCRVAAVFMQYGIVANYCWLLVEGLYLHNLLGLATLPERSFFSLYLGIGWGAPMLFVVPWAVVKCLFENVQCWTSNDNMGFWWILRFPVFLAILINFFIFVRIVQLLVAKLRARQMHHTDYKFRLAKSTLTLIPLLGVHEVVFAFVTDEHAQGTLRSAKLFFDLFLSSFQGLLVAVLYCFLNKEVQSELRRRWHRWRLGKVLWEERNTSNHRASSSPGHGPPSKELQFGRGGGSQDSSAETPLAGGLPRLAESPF

Aib^2, Aib^13, Aib^29, Cys^43(PEG20K), Cys^44 (PEG20K)-GIP (Y[Aib]EGTFTSDYSI[Aib]LDKIAQRAFVQWLIA[Aib]KGKKQEWKHQITQC(PEG 20 kDa)C(PEG 20 kDa)-NH2) [Example 3, GIP analog PEGylated at Cys 43 and 44 with 20 kDa mPEG maleimide]
Ki (hGlucR): > 7.89 µM | cumulative food intake and body weight compared to vehicle-treated mice ([1]; 14-day DIO mouse studies, summary of Tables 6a and 6b): decreased | Fat mass loss (g fat weight change for 14 days) ([1]; Table 6a, 30 nmol/Kg): -4.3 ± 0.3 g | Total food intake (g total for 14 days) ([1]; Table 6a, 30 nmol/Kg): 26.5 ± 1.5 g | Overall weight loss (g weight change for 14 days) ([1]; Table 6a, 30 nmol/Kg sc every 3 days): -5.5 ± 0.4 g | Fat mass loss (g fat weight change for 14 days) ([1]; Table 6a, 100 nmol/Kg): -5.6 ± 0.2 g | Total food intake (g total for 14 days) ([1]; Table 6a, 100 nmol/Kg): 23.4 ± 0.7 g | Overall weight loss (g weight change for 14 days) ([1]; Table 6a, 100 nmol/Kg sc every 3 days): -7.0 ± 0.3 g | glucose excursion following an oral glucose load (DIO mice; DIO mice, summary of Tables 7a and 7b): significantly reduced | Glucose AUC, MEAN (DIO mice; Table 7a, 30 nmol/Kg): 10293 mg·min/dL | Glucose AUC, MEAN (DIO mice; Table 7a, 100 nmol/Kg): 10892 mg·min/dL | free fatty acids (plasma) ([2]; 10 nmol/Kg): 0.94 mEq/L | total cholesterol (plasma) ([2]; 10 nmol/Kg): 91 mg/dL | triglycerides (plasma) ([2]; 10 nmol/Kg): 262.1 mg/dL | fat mass reduced ([2]; 10 nmol/Kg over 16 days): 1.3% | lean mass increased ([2]; 10 nmol/Kg over 16 days): 0.6% | free fatty acids (plasma) ([2]; 30 nmol/Kg): 1.01 mEq/L | total cholesterol (plasma) ([2]; 30 nmol/Kg): 94 mg/dL | triglycerides (plasma) ([2]; 30 nmol/Kg): 233.5 mg/dL | fat mass reduced ([2]; 30 nmol/Kg over 16 days): 2.3% | lean mass increased ([2]; 30 nmol/Kg over 16 days): 1.3% | changes in body weight and body composition compared to vehicle-treated DIO rats ([2]; over 16 days): increasing the percentage of lean mass and decreasing the percentage of fat mass | amount of free fatty acids ([2]; versus vehicle): increased | amounts of plasma lipids, including triglycerides and total cholesterol ([2]; versus vehicle): lowered | insulin AUC and glucose AUC compared to vehicle-treated rats (Normal male Wistar rats): increased insulin AUC and decreased glucose AUC | glucose AUC (Normal male Wistar rats; 50 μg/Kg): 6780 mg·min/dL | insulin AUC (Normal male Wistar rats; 50 μg/Kg 16 hours before test): 137 ng·min/mL | glucose AUC (Normal male Wistar rats; 200 μg/Kg): 7020 mg·min/dL | insulin AUC (Normal male Wistar rats; 200 μg/Kg 16 hours before test): 183 ng·min/mL

Aib^2, Aib^13, Nal^22, Aib^29, Cys^43(PEG20K), Cys^44 (PEG20K)-GIP [Example 5] (Y[Aib]EGTFTSDYSI[Aib]LDKIAQRA[1Nal]VQWLIA[Aib]KGKKQEWKHQITQCC-NH2; not fully specified (residues 43, 44); cysteine pairing not given here) [Nal22 GIP analog PEGylated at Cys 43 and 44 with 20 kDa mPEG iodoacetamide]
Fat mass loss (g fat weight change for 14 days) ([1]; Table 6b, 10 nmol/Kg): -2.4 ± 0.3 g | Overall weight loss (g weight change for 14 days) ([1]; Table 6b, 10 nmol/Kg): -3.2 ± 0.3 g | Total food intake (g total for 14 days) ([1]; Table 6b, 10 nmol/Kg): 31.0 ± 1.0 g | Fat mass loss (g fat weight change for 14 days) ([1]; Table 6b, 30 nmol/Kg): -3.6 ± 0.4 g | Overall weight loss (g weight change for 14 days) ([1]; Table 6b, 30 nmol/Kg): -5.0 ± 0.4 g | Total food intake (g total for 14 days) ([1]; Table 6b, 30 nmol/Kg): 26.7 ± 0.7 g | Glucose AUC, MEAN (DIO mice; Table 7b, 10 nmol/Kg): 14332 mg·min/dL | Glucose AUC, MEAN (DIO mice; Table 7b, 30 nmol/Kg): 12474 mg·min/dL | glucose AUC (Normal male Wistar rats; 50 μg/Kg): 7202 mg·min/dL | insulin AUC (Normal male Wistar rats; 50 μg/Kg 16 hours before test): 133 ng·min/mL | glucose AUC (Normal male Wistar rats; 200 μg/Kg): 7351 mg·min/dL | insulin AUC (Normal male Wistar rats; 200 μg/Kg 16 hours before test): 124 ng·min/mL
